# Experiments:
# [1] = molecular target: Beta-1 adrenergic receptor (Homo sapiens, UniProt P08588); assay: Displacement of radiolabeled iodocyanopindolol from beta1 adrenoceptor
# D(2) dopamine receptor = D(2) dopamine receptor (Homo sapiens, UniProt P14416); assay: Displacement of radiolabeled spiperone from dopamine D2 receptor
# [2] = molecular target: T1, Alpha-1D adrenergic receptor (Homo sapiens, UniProt P25100); assay: Displacement of radiolabeled Prazosin from alpha1D adrenoceptor
# T1 sequence (P25100 whole entry): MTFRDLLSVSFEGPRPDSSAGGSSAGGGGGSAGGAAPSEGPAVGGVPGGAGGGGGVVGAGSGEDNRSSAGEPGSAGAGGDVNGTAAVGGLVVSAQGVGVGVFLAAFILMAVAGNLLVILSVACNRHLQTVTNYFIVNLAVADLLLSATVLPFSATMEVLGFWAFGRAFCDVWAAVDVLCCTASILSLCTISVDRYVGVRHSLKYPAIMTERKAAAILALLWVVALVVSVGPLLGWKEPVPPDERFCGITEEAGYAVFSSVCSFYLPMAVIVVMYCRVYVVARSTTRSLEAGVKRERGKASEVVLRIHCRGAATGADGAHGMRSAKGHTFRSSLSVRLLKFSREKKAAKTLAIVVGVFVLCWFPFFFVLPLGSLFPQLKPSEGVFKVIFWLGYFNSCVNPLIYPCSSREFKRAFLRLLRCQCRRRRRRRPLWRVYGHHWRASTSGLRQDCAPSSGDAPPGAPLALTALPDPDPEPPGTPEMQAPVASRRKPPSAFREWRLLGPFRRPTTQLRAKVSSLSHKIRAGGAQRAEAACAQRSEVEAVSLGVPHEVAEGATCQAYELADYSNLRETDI
# [3] = molecular target: T2, Beta-2 adrenergic receptor (Homo sapiens, UniProt P07550); assay: Agonist activity at human beta2 adrenoceptor expressed in H292 cells assessed as increase in cAMP accumulation after 60 mins by spectrophotometry; assay type: functional, cell-based
# T2 sequence (P07550 whole entry): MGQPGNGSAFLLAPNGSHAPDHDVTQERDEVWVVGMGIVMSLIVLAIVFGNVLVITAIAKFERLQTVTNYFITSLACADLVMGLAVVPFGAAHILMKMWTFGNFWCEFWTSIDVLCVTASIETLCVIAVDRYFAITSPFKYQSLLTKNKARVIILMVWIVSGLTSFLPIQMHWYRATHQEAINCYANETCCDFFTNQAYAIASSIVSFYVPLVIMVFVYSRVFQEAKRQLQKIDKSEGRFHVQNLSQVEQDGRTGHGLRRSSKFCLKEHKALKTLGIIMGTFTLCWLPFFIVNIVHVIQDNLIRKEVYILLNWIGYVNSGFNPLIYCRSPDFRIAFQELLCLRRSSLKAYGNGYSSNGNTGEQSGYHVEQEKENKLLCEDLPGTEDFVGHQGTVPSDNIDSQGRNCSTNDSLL
# [4] = molecular target: T2, Beta-2 adrenergic receptor; assay: Displacement of radiolabeled iodocyanopindolol from recombinant beta2 adrenoceptor
# physchem = conditions: 1-octanol/aqueous buffer, pH 7.4
# Sequence of D(2) dopamine receptor (P14416 whole entry): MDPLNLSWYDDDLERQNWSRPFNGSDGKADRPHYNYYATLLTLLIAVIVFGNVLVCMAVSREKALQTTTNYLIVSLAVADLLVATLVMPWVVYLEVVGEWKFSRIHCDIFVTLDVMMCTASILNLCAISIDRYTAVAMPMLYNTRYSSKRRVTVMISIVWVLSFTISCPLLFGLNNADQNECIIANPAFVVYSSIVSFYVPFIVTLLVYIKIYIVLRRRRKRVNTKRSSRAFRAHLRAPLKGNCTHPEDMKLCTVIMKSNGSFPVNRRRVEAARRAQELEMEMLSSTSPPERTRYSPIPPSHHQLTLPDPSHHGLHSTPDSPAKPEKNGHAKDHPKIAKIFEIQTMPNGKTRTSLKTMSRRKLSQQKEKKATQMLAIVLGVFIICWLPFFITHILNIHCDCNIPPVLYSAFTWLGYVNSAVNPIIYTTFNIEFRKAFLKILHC
# Sequence of Beta-1 adrenergic receptor (P08588 whole entry): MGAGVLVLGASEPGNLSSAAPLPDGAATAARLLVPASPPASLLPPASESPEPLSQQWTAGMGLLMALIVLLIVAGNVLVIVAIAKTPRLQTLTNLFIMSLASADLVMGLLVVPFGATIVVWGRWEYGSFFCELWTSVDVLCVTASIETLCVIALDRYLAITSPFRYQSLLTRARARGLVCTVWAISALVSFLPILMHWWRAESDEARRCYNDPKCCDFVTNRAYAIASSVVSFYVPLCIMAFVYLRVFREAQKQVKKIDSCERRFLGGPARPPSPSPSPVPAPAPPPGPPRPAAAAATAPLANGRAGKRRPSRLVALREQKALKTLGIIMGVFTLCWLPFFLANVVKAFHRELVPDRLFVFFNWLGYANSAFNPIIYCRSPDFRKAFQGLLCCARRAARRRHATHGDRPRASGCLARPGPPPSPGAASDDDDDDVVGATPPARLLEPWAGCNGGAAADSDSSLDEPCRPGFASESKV
SMILES,IC50 [1] [nM],IC50 (D(2) dopamine receptor) [nM],IC50 [2] [nM],EC50 [3] [nM],IC50 [4] [nM],logD (physchem)
OCc1cc([C@@H](O)CNCCc2ccc(CNCCc3ccccc3)cc2)ccc1O,> 3160,> 7940,501,31.6,631,–
COc1ccccc1CCNCc1cccc(CCNC[C@H](O)c2ccc(O)c3[nH]c(=O)sc23)c1,251,> 794,79.4,0.316,0.794,0.8
O=c1[nH]c2c(O)ccc(CCNCCc3ccc(-c4cccc(CN5Cc6ccccc6C5)c4)cc3)c2s1,–,–,–,–,15.8,–
O=c1[nH]c2c(O)ccc(CCNCCc3ccc(CNCCc4c(Cl)cccc4Cl)cc3)c2s1,–,–,–,100,501,–
COc1ccc(CNCc2cccc(CCNC[C@H](O)c3ccc(O)c4[nH]c(=O)sc34)c2)cc1,10,794,158,0.794,5.01,0.9
C[C@@H](NCc1ccccc1-c1ccc(CCNC[C@H](O)c2ccc(O)c3[nH]c(=O)sc23)cc1)c1ccccc1,–,–,–,3.98,2,–
O=c1[nH]c2c(O)ccc([C@@H](O)CNCCc3cccc(CNCCCc4ccccc4)c3)c2s1,20,316,158,0.501,0.794,1.1
O=c1[nH]c2c(O)ccc(CCNCCc3cccc(CNCCc4c(Cl)cccc4Cl)c3)c2s1,–,–,–,–,0.631,–
O=c1[nH]c2c(O)ccc([C@@H](O)CNCCc3ccc(CN4CCCC4)cc3)c2s1,–,–,–,39.8,–,–
CC(CNCc1ccc(CCNC[C@H](O)c2ccc(O)c3[nH]c(=O)sc23)cc1)c1ccccc1 (stereo not given in full),501,2510,31.6,0.398,0.2,1.2
O=c1[nH]c2c(O)ccc([C@@H](O)CNCCc3cccc(CN4CCC(c5ccccc5)CC4)c3)c2s1,–,–,–,1,3.98,–
O=c1[nH]c2c(O)ccc(CCNCCc3ccc(CNCCc4ccccn4)cc3)c2s1,–,–,–,158,100,–
O=c1[nH]c2c(O)ccc([C@@H](O)CNCCc3ccc(CNCCc4ccccc4F)cc3)c2s1,398,2000,50.1,0.398,2,1.3
O=c1[nH]c2c(O)ccc([C@@H](O)CNCCc3cccc(CNCc4ccccn4)c3)c2s1,79.4,5010,316,–,–,–
O=c1[nH]c2c(O)ccc([C@@H](O)CNCCc3ccc(CNCCc4ccccn4)cc3)c2s1,> 794,2510,25.1,–,–,-0.3
O=c1[nH]c2c(O)ccc(CCNCCc3cccc(CN[C@H]4C[C@@H]4c4ccccc4)c3)c2s1,–,–,–,3.98,12.6,–
O=c1[nH]c2c(O)ccc([C@@H](O)CNCCc3cccc(CNCCc4ccccc4Cl)c3)c2s1,158,631,50.1,0.251,0.631,1.6
O=c1[nH]c2c(O)ccc([C@@H](O)CNCCOc3cccc(CNCCc4ccccc4F)c3)c2s1,200,398,25.1,2.51,7.94,1.9
COCCNCc1ccc(CCNC[C@H](O)c2ccc(O)c3[nH]c(=O)sc23)cc1,794,> 10000,631,15.8,316,-0.5
O=c1[nH]c2c(O)ccc([C@@H](O)CNCCc3cccc(CNCc4ccccc4Cl)c3)c2s1,10,251,158,–,–,1.9

SMILES,IC50 [1] [nM],IC50 (D(2) dopamine receptor) [nM],IC50 [2] [nM],EC50 [3] [nM],IC50 [4] [nM],logD (physchem)
COc1ccccc1CNCc1ccc(CCNC[C@H](O)c2ccc(O)c3[nH]c(=O)sc23)cc1,1260,2510,100,3.16,126,0.2
O=c1[nH]c2c(O)ccc(CCNCCc3ccc(CNCCc4ccccc4F)cc3)c2s1,–,–,–,79.4,1260,–
COc1ccccc1CNCCc1cccc(CCNC[C@H](O)c2ccc(O)c3[nH]c(=O)sc23)c1,63.1,1000,25.1,–,–,0.9
O=c1ccc2c([C@@H](O)CNCCc3cccc(CNCCc4ccccn4)c3)ccc(O)c2[nH]1,3160,> 10000,398,2.51,63.1,–
CCN(Cc1ccncc1)Cc1cccc(-c2ccc(CCNCCc3ccc(O)c4[nH]c(=O)sc34)cc2)c1,–,–,–,316,794,–
O=c1[nH]c2c(O)ccc([C@@H](O)CNCCCc3cccc(CNCCc4c(Cl)cccc4Cl)c3)c2s1,7.94,79.4,39.8,1.26,6.31,–
O=c1[nH]c2c(O)ccc([C@@H](O)CNCCc3ccc(-c4cccc(CN5Cc6ccccc6C5)c4)cc3)c2s1,–,–,–,10,63.1,–
COc1ccccc1CCNCc1ccc(CCNCCc2ccc(O)c3[nH]c(=O)sc23)cc1,–,–,–,–,200,–
O=c1[nH]c2c(O)ccc(CCNCCc3cccc(CN4CCC(c5ccccc5)CC4)c3)c2s1,–,–,–,–,31.6,–
O=c1[nH]c2c(O)ccc([C@@H](O)CNCCc3ccc(CNCCc4ccccc4)cc3)c2s1,398,2000,12.6,0.251,2,1.1
CC(Cc1cccc(CNCCc2c(Cl)cccc2Cl)c1)NC[C@H](O)c1ccc(O)c2[nH]c(=O)sc12 (stereo not given in full),20,126,39.8,–,–,2.4
O=c1[nH]c2c(O)ccc([C@@H](O)CNCCc3cccc(CNCCCc4ccccn4)c3)c2s1,63.1,> 2510,251,1,0.501,–
CCOc1ccccc1CNCc1cccc(CCNC[C@H](O)c2ccc(O)c3[nH]c(=O)sc23)c1,100,1260,31.6,3.16,25.1,–
O=c1[nH]c2c(O)ccc([C@@H](O)CNCCc3ccccc3CNCCc3ccccc3F)c2s1,2,794,200,1.58,12.6,1.6
COc1ccccc1CCNCc1ccc(CCNC[C@H](O)c2ccc(O)c3[nH]c(=O)sc23)cc1,316,631,7.94,0.316,2,–
COc1ccccc1CNCc1ccc(CCNC[C@@H](O)c2ccc(O)c3[nH]c(=O)sc23)cc1,1260,2000,79.4,7.94,251,–
COc1cccc(CNCc2cccc(CCNC[C@H](O)c3ccc(O)c4[nH]c(=O)sc34)c2)c1,63.1,794,100,1,6.31,0.9
Cc1cccc2c(CCNCc3cccc(CCNC[C@H](O)c4ccc(O)c5[nH]c(=O)sc45)c3)c[nH]c12,79.4,398,398,0.316,0.631,1.1
O=c1[nH]c2c(O)ccc(CCNCCc3ccc(CN4CC[C@@H](Oc5ccc(Cl)cc5)C4)cc3)c2s1,–,–,–,158,126,–
